US20250082605A1 (priority 2016, published 2025)

Experiments:
TRPV1 [1] = target: T1, TRPV1 (Rattus norvegicus, UniProt O35433); experiment: TRPV1 receptor intensity by vertebral level after epidural RTX injection at T1-T4; assay type: in vivo; design: from tissue; host or cells: rat tissue at vertebral levels C6-L4 after in vivo epidural RTX; details: RTX injection at T1-T4 vertebral levels, FIG. 2
Description: The nerves associated with the sympatho-excitation corresponding to increased cardiac sympathetic nerve activity are predominately found within the first four thoracic vertebral levels (Evans et al. (1953) N. Engl. J. Med. 249:791-796). Thus, administration to one or more of the first four thoracic vertebral levels may be beneficial because the nerves associated with cardiac sympathetic afferent nerve activity are predominately found within the first four thoracic vertebral levels. By treating these thoracic vertebral levels, denervation of these sympathetic afferent nerves will be substantially achieved with minimal or only partial denervation or ablation of nerves at other vertebral levels. […] Additionally, the small images inset on the figure show greater intensity of activity visible at the C6, C7, T6, T7, and L4 vertebral levels, as compared to the C8 through T5 vertebral levels.
For epidural application of RTX, a small midline incision was made in the region of the T13-L1 thoracic vertebrae. Following dissection of the superficial muscles, two small holes (approximately 2 mm by 2 mm) were made in the left and right sides of the T13 vertebra. […]

TRPV1 [2] = target: T1, TRPV1; experiment: Isolectin B4 (IB4) and TRPV1 expression in DRG neurons after epidural RTX; assay type: in vivo; design: from tissue; host or cells: rat dorsal root ganglion (DRG) neurons; details: epidural RTX vs vehicle-only, FIG. 3A
Protocol: (§1) For epidural application of RTX, a small midline incision was made in the region of the T13-L1 thoracic vertebrae. Following dissection of the superficial muscles, two small holes (approximately 2 mm by 2 mm) were made in the left and right sides of the T13 vertebra. A polyethylene catheter (PE-10) was inserted into the […] via the left hole and gently advanced about 5.5-6 cm to the left T1 level at which the first injection (6 μg/mL, 10 μL) was made at a very slow speed to minimize the diffusion of RTX. Then the catheter was pulled back about 0.5 cm to left T2, T3, and T4, respectively, to perform serial injections (10 μL each) in each segment. Then the catheter was withdrawn and the same injection was repeated on the right side. A silicone gel was used to seal the hole in the T13 vertebra. The skin overlying the muscle was closed with a 3-0 polypropylene suture. Simple interrupted sutures were used to close the skin.
FIGS. 3A-4B show experimental results for a rat study in accordance with an embodiment of the present application.

early hypertensive rats = experiment: Arterial pressure in early hypertensive rat model after epidural RTX; assay type: in vivo
Protocol: (§2) Open circles indicate the control population, while filled circles indicate the RTX-treated population. Epidural administration of RTX was by injection on Day 0, as indicated by the arrow on the graph.
(§3) The hypertensive model is a genetic spontaneously hypertensive rat (SHR). The early hypertension rats were treated at 8 weeks at age, reflecting a population in which blood pressure was only minimally elevated at the beginning of the study. Examples 10 and 11 illustrate treatment of subjects with hypertension and pre-hypertension (i.e., mild hypertension or early hypertension) and without induced CHF. For these subjects, epidural administration of RTX may be associated with an absolute reduction in blood pressure. Additionally, subjects treated with RTX may show less increase in blood pressure over time, as compared to a control population. Or, treatment may be associated with both an absolute reduction in pressure and lessened increase over time.
FIG. 13A-13C show experimental results in a study using an early-hypertensive rat model. […] Open circles indicate the control population, while filled circles indicate the RTX-treated population. Epidural administration of RTX was by injection on Day 0, as indicated by the arrow on each graph.

rats with induced CHF = experiment: Mean arterial pressure over 24 hours in CHF rats; assay type: in vivo, rat; details: epidural RTX, 10-12 weeks after myocardial infarction
Protocol: The study was conducted 10-12 weeks after the myocardial infarction.
as §1
For each population, n=6-8. The study was conducted for a 10-12 week period after the myocardial infarction. […] Treatment with epidural RTX corresponds to a lower MAP for the CHF rat population.

[3] = tested on: spontaneously hypertensive rat (SHR); experiment: Arterial pressure in spontaneously hypertensive rat (SHR) model with established hypertension after epidural RTX; assay type: in vivo
Protocol: as §2, §3
FIG. 14A-14C show further experimental results in a study using an (SHR) model. […] The established hypertensive rats were treated at 16 weeks at age, reflecting a population in which blood pressure was elevated at the beginning of the RTX administration. Open circles indicate the control population, while filled circles indicate the RTX-treated population. Epidural administration of RTX was by injection on Day 0, as indicated by the arrow on each graph. […] These subjects were not treated to induce myocardial infarction. The data allowed for comparison of SHR rats provided injection of the vehicle only (n=7) to those treated by injection of both vehicle and RTX (n=7).

[4] = vehicle-only continued to increase
[5] = established SHR, maintained throughout the study

T1 sequence (O35433 whole entry): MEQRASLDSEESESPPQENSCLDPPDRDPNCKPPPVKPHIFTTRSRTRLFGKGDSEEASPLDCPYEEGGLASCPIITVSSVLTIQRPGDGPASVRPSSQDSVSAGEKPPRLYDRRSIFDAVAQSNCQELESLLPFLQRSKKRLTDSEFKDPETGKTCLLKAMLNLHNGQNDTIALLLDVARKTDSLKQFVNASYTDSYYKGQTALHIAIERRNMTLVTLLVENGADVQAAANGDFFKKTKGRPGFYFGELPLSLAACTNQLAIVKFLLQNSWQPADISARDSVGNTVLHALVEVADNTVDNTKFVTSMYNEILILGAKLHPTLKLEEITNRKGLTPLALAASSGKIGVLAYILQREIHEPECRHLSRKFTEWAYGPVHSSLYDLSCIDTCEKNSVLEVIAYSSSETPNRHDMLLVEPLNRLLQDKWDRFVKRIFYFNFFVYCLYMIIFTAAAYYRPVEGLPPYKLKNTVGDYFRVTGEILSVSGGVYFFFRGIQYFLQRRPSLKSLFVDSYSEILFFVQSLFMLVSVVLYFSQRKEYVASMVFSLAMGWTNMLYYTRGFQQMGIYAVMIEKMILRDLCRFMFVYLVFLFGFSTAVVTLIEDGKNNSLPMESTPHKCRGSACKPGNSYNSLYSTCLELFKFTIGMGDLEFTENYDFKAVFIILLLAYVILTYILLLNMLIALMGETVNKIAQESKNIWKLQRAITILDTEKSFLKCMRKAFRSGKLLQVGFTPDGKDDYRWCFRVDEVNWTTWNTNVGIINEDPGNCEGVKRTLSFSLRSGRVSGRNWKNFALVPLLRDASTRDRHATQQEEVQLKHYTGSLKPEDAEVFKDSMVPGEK

For `C=C(C)[C@]12C[C@@H](C)[C@@]34O[C@](Cc5ccccc5)(O[C@@H]1[C@@H]3C=C(COC(=O)Cc1ccc(O)c(OC)c1)C[C@]1(O)C(=O)C(C)=C[C@@H]41)O2` [RTX, resiniferatoxin], the “reduced vanilloid (TRPV1) receptor intensity, localisation” value (TRPV1 [1]) was “generally localized to the four treated vertebral levels and the one or two vertebral levels proximate the treated vertebral levels”, the “isolectin B4 (IB4) and TRPV1 expression in DRG neurons” value (TRPV1 [2]) was “reduction” and the MAP following treatment (early hypertensive rats) was 125-130 mmHg. The “day from which MAP was significantly lower than vehicle-only” value (early hypertensive rats) was 20 days, the “day from which diastolic arterial pressure was significantly lower than control” value (early hypertensive rats) was ~22 days and the “day from which systolic arterial pressure was significantly lower than control” value (early hypertensive rats) was ~23 days. The “mean arterial pressure (MAP) after RTX injection” value (early hypertensive rats; epidural RTX Day 0) was “decreased slightly”, the “systolic arterial pressure within a few days after RTX injection” value (early hypertensive rats; then returned and maintained) was “decreased slightly” and the “diastolic arterial pressure over the study period” value (early hypertensive rats; [4]) was “remained approximately steady”. For the same compound, the “mean arterial pressure (MAP) over the period of the study” value (early hypertensive rats; [4]) was “approximately steady”, the “mean arterial pressure (MAP) over 24 hours” value (rats with induced CHF) was “lower MAP” and the “day from which MAP reduction was significant vs vehicle-only” value ([3]; established SHR) was ~8 days. The “day from which diastolic arterial pressure differed significantly from vehicle-only” value ([3]; established SHR) was ~8 days, the “day from which systolic arterial pressure differed significantly from vehicle-only” value ([3]; established SHR) was ~7 days and the “mean arterial pressure (MAP) vs pre-injection baseline” value ([3]; established SHR, epidural RTX, observed throughout 55-day period) was “some reduction”. The “diastolic arterial pressure vs pre-injection baseline” value [3, 5] was “decrease”, the “systolic arterial pressure vs pre-injection baseline” value [3, 5] was “decrease” and the MAP following treatment ([3]; established hypertensive rats) was 125-130 mmHg.
